Laboratory results published in patent publication US9056851B2, “Thiolactone antibiotics” (priority 2011, dated 2015).
≈ marks a conversion by molar mass, not a printed value.

Assays:
[1] = test system: S. aureus RN4220; assay: MIC against S. aureus RN4220 (MSSA); type: cell-based; conditions: Staphylococcus aureus, MIC90, read-out: MIC (μg/ml) Staph. aureus RN4220 MSSA
[2] = test system: M. smegmatis MC^2155; assay: MIC against M. smegmatis; type: cell-based; conditions: Mycolicibacterium smegmatis, MC^2155; MIC90; read-out: MIC (μg/ml) M. smeg
[3] = test system: F. tularensis LVS; assay: microbe, parasite or virus in culture; type: cell-based; conditions: Francisella tularensis, read-out: MIC (μg/ml) F. tu
[4] = test system: Y. pestis A1122; assay: microbe, parasite or virus in culture; type: cell-based; conditions: Yersinia pestis, A1122, read-out: MIC (μg/ml) Y. pestis
[5] = test system: M. tuberculosis H37Rv; assay: MIC against M. tuberculosis; type: cell-based; conditions: Mycobacterium tuberculosis; MIC99; H37Rv; read-out: MIC (μg/ml) M. tb (MIC99)
[6] = test system: S. aureus BAA1762; assay: MIC against S. aureus BAA1762 (MRSA); type: cell-based; conditions: Staphylococcus aureus; MIC90; read-out: MIC (μg/ml) Staph. aureus BAA1762 MRSA
[7] = test system: B. thialandensis Bt38; assay: MIC against B. thialandensis; type: cell-based; conditions: read-out: MIC (μg/ml) B. thialandensis Bt.38 (efflux^−)
[8] = target: wild-type apo-KasA (Mycobacterium tuberculosis, UniProt P9WQD9); assay: biochemical; type: binding
Sequence of wild-type apo-KasA (P9WQD9 whole entry): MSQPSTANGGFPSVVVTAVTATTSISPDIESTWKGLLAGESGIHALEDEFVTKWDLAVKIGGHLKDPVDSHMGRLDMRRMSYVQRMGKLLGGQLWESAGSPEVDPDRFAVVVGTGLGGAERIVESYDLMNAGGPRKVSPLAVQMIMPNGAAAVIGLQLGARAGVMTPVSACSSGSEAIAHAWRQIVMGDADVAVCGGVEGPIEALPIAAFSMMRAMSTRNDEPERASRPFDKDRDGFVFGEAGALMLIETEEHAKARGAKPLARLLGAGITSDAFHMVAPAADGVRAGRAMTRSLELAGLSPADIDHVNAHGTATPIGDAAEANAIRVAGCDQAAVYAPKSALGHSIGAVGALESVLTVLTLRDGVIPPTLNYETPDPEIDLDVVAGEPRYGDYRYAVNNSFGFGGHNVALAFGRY

[9] = test system: B. pseudomallei Bp82z66; assay: microbe, parasite or virus in culture; type: cell-based; conditions: Burkholderia pseudomallei, BP82Z66, read-out: MIC (μg/ml) B. pseudomallei

Row | Structure (SMILES) | MIC [1] | MIC [2] | MIC [3] | MIC [4] | MIC99 [5] | MIC [6] | MIC [7] | Ki [8] | Kd ([8]; Kd (μM) apo-KasA, Table 1, wild-type apo-KasA, fluorescence spectroscopy) | MIC [9]
1 | C=C/C(C)=C/[C@@]1(C)SC(=O)C=C1O [TLM2, 5R-(+)-3-Demethylthiolactomycin] | 150 µg/mL (≈ 764 µM) | > 100 µg/mL | 124 µg/mL (≈ 631 µM) | 250 µg/mL (≈ 1270 µM) | > 100 µg/mL | 100 µg/mL (≈ 509 µM) | 148 µg/mL (≈ 756 µM) |  |  | 
2 | C=C/C(C)=C/[C@@]1(C)SC(=O)C(CC)=C1O [TLM3, 5R-(+)-3-Ethylthiolactomycin] | 150 µg/mL (≈ 669 µM) | > 100 µg/mL | 6.9 µg/mL (≈ 30.8 µM) | 145 µg/mL (≈ 645 µM) | < 7.8 µg/mL | 125 µg/mL (≈ 557 µM) | 148 µg/mL (≈ 661 µM) |  |  | 
3 | C=C/C(C)=C/[C@@]1(C)SC(=O)C(CCC)=C1O [TLM4, 5R-(+)-3-Propylthiolactomycin] | > 200 µg/mL | > 100 µg/mL | 25.8 µg/mL (≈ 108 µM) | 250 µg/mL (≈ 1050 µM) | 12.5 µg/mL (≈ 52.4 µM) | > 200 µg/mL | 250 µg/mL (≈ 1050 µM) |  |  | 
4 | C=C/C(C)=C/[C@@]1(C)SC(=O)C(CCc2ccc(C)cc2)=C1O [TLM5] | > 64 µg/mL | > 100 µg/mL | 3.45 µg/mL (≈ 11 µM) | 250 µg/mL (≈ 795 µM) | 25 µg/mL (≈ 79.5 µM) | > 100 µg/mL | 250 µg/mL (≈ 795 µM) |  |  | 
5 | C=C/C(C)=C/[C@@]1(C)SC(=O)C(CCCCc2ccc(F)cc2)=C1O [TLM6] | > 64 µg/mL | > 100 µg/mL | 3.15 µg/mL (≈ 9.1 µM) | 250 µg/mL (≈ 722 µM) | 25 µg/mL (≈ 72.2 µM) | 75 µg/mL (≈ 216 µM) | 250 µg/mL (≈ 722 µM) |  |  | 
6 | C=C/C(C)=C/[C@@]1(C)SC(=O)C(CCCCc2ccc(Cl)cc2)=C1O [TLM7] | 64 µg/mL (≈ 176 µM) | > 100 µg/mL | 1.73 µg/mL (≈ 4.77 µM) | 250 µg/mL (≈ 689 µM) | 25 µg/mL (≈ 68.9 µM) | 50 µg/mL (≈ 138 µM) | 81 µg/mL (≈ 223 µM) |  |  | 
7 | C=C/C(C)=C/[C@@]1(C)SC(=O)C(CCCCc2ccc(Br)cc2)=C1O [TLM8] | 32 µg/mL (≈ 78.6 µM) | > 100 µg/mL | 2.17 µg/mL (≈ 5.33 µM) | 250 µg/mL (≈ 614 µM) | 25 µg/mL (≈ 61.4 µM) | 50 µg/mL (≈ 123 µM) | 126 µg/mL (≈ 309 µM) |  |  | 
8 | C=C/C(C)=C/[C@@]1(C)SC(=O)C(CCCCc2ccc(-c3ccccc3)cc2)=C1O [TLM9] | 16 µg/mL (≈ 39.5 µM) |  | 1.97 µg/mL (≈ 4.88 µM) | 250 µg/mL (≈ 618 µM) | 50 µg/mL (≈ 124 µM) | 25 µg/mL (≈ 61.8 µM) | 145 µg/mL (≈ 359 µM) |  |  | 
9 | C=C/C(C)=C/[C@@]1(C)SC(=O)C(CCCN=[N+]=[N-])=C1O [TLM10] | > 64 µg/mL |  | 23.5 µg/mL (≈ 84.1 µM) | 250 µg/mL (≈ 895 µM) | 12.5 µg/mL (≈ 44.7 µM) | > 100 µg/mL | 250 µg/mL (≈ 895 µM) | 233 ± 7 µM | 233 ± 7 µM | 
10 | C=C/C(C)=C/[C@@]1(C)SC(=O)C=C1OCC(=O)NCCn1cc(CNC(=O)[C@H](O)C(C)(C)CO)nn1 [TLM26] | > 64 µg/mL |  | 159 µg/mL (≈ 313 µM) |  | > 100 µg/mL | > 64 µg/mL |  |  |  | 150 µg/mL (≈ 295 µM)
11 | C=C/C(C)=C/[C@@]1(C)SC(=O)C(CCc2ccc(Cl)cc2)=C1O [TLM31] | 64 µg/mL (≈ 191 µM) |  | 3.1 µg/mL (≈ 9.24 µM) | 250 µg/mL (≈ 747 µM) | 25 µg/mL (≈ 74.7 µM) | 100 µg/mL (≈ 299 µM) | 250 µg/mL (≈ 747 µM) |  |  | 
12 | C=C/C(C)=C/[C@@]1(C)SC(=O)C(CCCCN=[N+]=[N-])=C1O [TLM32] | > 64 µg/mL |  | 15.3 µg/mL (≈ 52.3 µM) | 250 µg/mL (≈ 852 µM) | 50 µg/mL (≈ 170 µM) | > 100 µg/mL | 250 µg/mL (≈ 852 µM) |  |  | 
13 | C=C/C(C)=C/[C@@]1(C)SC(=O)C(CCCCn2cc(CNC(=O)[C@H](O)C(C)(C)CO)nn2)=C1O [TLM33] | > 64 µg/mL |  | 250 µg/mL (≈ 522 µM) | 250 µg/mL (≈ 522 µM) | > 100 µg/mL | > 100 µg/mL | 250 µg/mL (≈ 522 µM) |  |  | 
